Legend:
Conditions in all cases: 72 h
[1] = tested on: Calu-3; assay: drug sensitivity score (DSS) for viability; higher = more toxic; extreme values may be limits of the assay
[2] = tested on: Vero E6; assay: as above
[3] = tested on: Caco-2; assay: as above
[4] = tested on: HepG2; assay: as above
[5] = tested on: U2OS; assay: as above
[6] = tested on: Calu-3; assay: cell viability relative to DMSO; higher = less toxic
[7] = tested on: Vero E6; assay: as above
[8] = tested on: Caco-2; assay: as above
[9] = tested on: HepG2; assay: as above
[10] = tested on: U2OS; assay: as above
[11] = tested on: Calu-3; assay: relative viability EC50 (midpoint between 100% and the lowest measured viability); higher = less toxic
[12] = tested on: Caco-2; assay: as above
[13] = tested on: HepG2; assay: as above
[14] = tested on: U2OS; assay: as above
[15] = tested on: Vero E6; assay: as above

| SMILES | drug sensitivity score [1] | drug sensitivity score [2] | drug sensitivity score [3] | drug sensitivity score [4] | drug sensitivity score [5] | cell viability ([6]; 1 nM) [%] | cell viability ([6]; 10 nM) [%] | cell viability ([6]; 100 nM) [%] | cell viability ([6]; 1000 nM) [%] | cell viability ([6]; 10000 nM) [%] | cell viability ([7]; 1 nM) [%] | cell viability ([7]; 10 nM) [%] | cell viability ([7]; 100 nM) [%] | cell viability ([7]; 1000 nM) [%] | cell viability ([7]; 10000 nM) [%] | cell viability ([8]; 1 nM) [%] | cell viability ([8]; 10 nM) [%] | cell viability ([8]; 100 nM) [%] | cell viability ([8]; 1000 nM) [%] | cell viability ([8]; 10000 nM) [%] | cell viability ([9]; 1 nM) [%] | cell viability ([9]; 10 nM) [%] | cell viability ([9]; 100 nM) [%] | cell viability ([9]; 1000 nM) [%] | cell viability ([9]; 10000 nM) [%] | cell viability ([10]; 1 nM) [%] | cell viability ([10]; 10 nM) [%] | cell viability ([10]; 100 nM) [%] | cell viability ([10]; 1000 nM) [%] | cell viability ([10]; 10000 nM) [%] | relative viability EC50 [11] [µM] | relative viability EC50 [12] [µM] | relative viability EC50 [13] [µM] | relative viability EC50 [14] [µM] | relative viability EC50 [15] [µM] |
| --- | --- | --- | --- | --- | --- | --- | --- | --- | --- | --- | --- | --- | --- | --- | --- | --- | --- | --- | --- | --- | --- | --- | --- | --- | --- | --- | --- | --- | --- | --- | --- | --- | --- | --- | --- |
| CCn1c(-c2nonc2N)nc2cnc(Oc3cccc(NC(=O)c4ccc(OCCN5CCOCC5)cc4)c3)cc21 | 0 | 5.9 | 1.8 | 5.1 | 4.4 | 97.9 | 123 | 144 | 131 | 125 | 96.5 | 99.3 | 88.9 | 72.2 | 72.1 | 94.9 | 98 | 94.9 | 97.8 | 67.7 | 96.6 | 107 | 114 | 80.4 | 52.4 | 97.5 | 98.6 | 91.4 | 78.5 | 62.1 | > 10 | – | – | – | – |
| Cc1nnc2ccc(-c3cccc(C(F)(F)F)c3)nn12 | 0 | – | 0.2 | 0 | 0 | 99.5 | 111 | 95 | 101 | 91.2 | – | – | – | – | – | 92.5 | 97.3 | 107 | 97.6 | 87.9 | 107 | 102 | 107 | 90.4 | 108 | 99.1 | 98.8 | 94.3 | 99.4 | 94.5 | > 10 | > 10 | > 10 | > 10 | – |
| N#CCC(=O)c1ccccc1 | 0 | – | 0 | 0 | 0 | 103 | 108 | 96.3 | 100 | 94.7 | – | – | – | – | – | 106 | 105 | 89.2 | 98.2 | 102 | 94.9 | 103 | 101 | 106 | 96.2 | 100 | 99.9 | 100 | 98.3 | 104 | > 10 | > 10 | > 10 | > 10 | – |
| NS(=O)(=O)NCc1csc2ccccc12 | 0 | – | 0 | 0 | 0 | 90.7 | 93.4 | 94.8 | 103 | 95.4 | – | – | – | – | – | 84.1 | 95.7 | 96.2 | 94.3 | 87.3 | 109 | 97 | 111 | 98.7 | 112 | 102 | 106 | 96.4 | 104 | 99.8 | > 10 | > 10 | > 10 | > 10 | – |
| O=C(NOCC(O)CO)c1cc(Br)c(F)c(F)c1Nc1ccc(I)cc1F (stereo not given) | 11.8 | 11.1 | 9.1 | 20.9 | 1.8 | 94.8 | 81.8 | 73.3 | 62.1 | 43.2 | 93.8 | 88.6 | 76.7 | 55.2 | 51.3 | 102 | 92.3 | 73.3 | 69.5 | 68.7 | 99.5 | 97.9 | 46.1 | 25.7 | 21.3 | 103 | 94.7 | 92.7 | 97.6 | 67.8 | 0.102 | – | 0.0645 | – | – |
| CC(=O)N[C@H]1[C@H]([C@H](O)[C@H](O)CO)OC(O)(C(=O)O)C[C@@H]1O (mixture of isomers) [aceneuramic-acid] | 0 | 0 | 0 | 2.5 | – | 113 | 99.6 | 99.2 | 97.1 | 90.4 | 102 | 97.4 | 101 | 93.7 | 98 | 106 | 99 | 85.8 | 99.3 | 93.6 | 94.6 | 90.1 | 99.9 | 67.9 | 86.1 | – | – | – | – | – | > 10 | > 10 | – | – | > 10 |
| CCCCCCCCCCCCCCCCO [1-hexadecanol] | 0 | 0 | 0 | – | 0 | 94 | 95.5 | 102 | 95.5 | 97.3 | 99.7 | 97.3 | 96 | 95.9 | 102 | 107 | 97.4 | 87.3 | 96.6 | 95.1 | – | – | – | – | – | 97.8 | 100 | 97 | 97.3 | 92.7 | > 10 | > 10 | – | > 10 | > 10 |
| Cc1[nH]c2ccc(O)cc2c1CCN [2-methyl-5-hydroxytryptamine] | 0 | 0 | 0 | – | 0 | 109 | 109 | 102 | 101 | 99.3 | 95 | 96.5 | 98.4 | 96.6 | 94.9 | 104 | 105 | 98.3 | 102 | 102 | – | – | – | – | – | 101 | 101 | 97.3 | 106 | 101 | > 10 | > 10 | – | > 10 | > 10 |

— the supplement of paper PMC13380429
